Test results from US8952054B2, “Small molecule inhibitors of MUC1 and methods of identifying the same” (Dana-Farber Cancer Institute, Inc., priority 2010, dated 2015).

How the values were obtained:
MUC1-C [1] = molecular target: T1, MUC1-C (Homo sapiens, UniProt P15941); experiment: Immunoblot of MUC1-C expression in BT474 cells; type: cell-based; design: endogenous in cells; conditions: BT474, 3 d then additional 3 d
T1 sequence (P15941 1098-1255 limits assumed): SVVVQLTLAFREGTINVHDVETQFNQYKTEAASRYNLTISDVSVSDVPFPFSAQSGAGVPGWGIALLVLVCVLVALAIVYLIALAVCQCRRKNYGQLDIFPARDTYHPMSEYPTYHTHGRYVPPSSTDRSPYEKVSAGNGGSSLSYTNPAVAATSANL
Protocol: FIGS. 16A-D—Effects of apigenin on breast cancer cells without and with endogenous MUC1 expression. (FIG. 16A) Lysates from human MCF-7, HCC1937 and BT474 cells were immunoblotted with the indicated antibodies. (FIG. 16B) BT474 cells were treated with indicated concentrations of apigenin and baicalein for 3 d, washed and then treated for an additional 3 d. Lysates were immunoblotted with the indicated antibodies. (FIG. 16C) BT474 (triangles) and HCC1937 (squares) cells were treated with apigenin for 3 d. Viable cell numbers were determined by MTS assay. The results (mean+SD of 3 determinations) are expressed as percentage of control growth in the presence of DMSO. (FIG. 16D) BT474 cells were plated at a density of 5000 cells/6 cm dish. At 24 h after seeding, DMSO or apigenin at concentrations of 25, 50 and 75 μM was added to the medium. After 2 weeks, colonies were stained with crystal violet. The results (mean+SD of 3 determinations) are expressed as percentage of control colony formation in the presence of DMSO.

MCF-7 cells = experiment: Cell cycle distribution and necrosis by flow cytometry, MCF-7; type: cell-based, human; conditions: MCF-7, 5 μM, 3 and 4 d
Protocol: FIGS. 3A-D. MUC1/CQC peptide induces S phase arrest and necrosis. ZR-75-1 (FIGS. 2A-B) and MCF-7 (FIGS. 2C-D) cells were treated with 5 μM MUC1/CQC or MUC1/AQA for 3 and 4 d. Cells were fixed and analyzed for cell cycle distribution by flow cytometry (FIGS. 2A and 2C). The percentage of cells in G1, S and G2/M phases is included in the panels. Cells were also stained with propidium iodide and analyzed by flow cytometry for necrosis (FIGS. 2B and 2D). The percentage of necrotic cells is included in the panels.
Cells were harvested, washed with PBS, fixed with 80% ethanol, and incubated in PBS containing 40 μg/ml RNAse and 40 μg/ml propidium iodide for 30 min at 37° C. Cell cycle distribution was determined by flow cytometry. Sub-G1 DNA content was assessed by staining ethanol-fixed and citrate buffer-permeabilized cells with propidium iodide and monitoring by flow cytometry as described (Yin et al., 2007). For assessment of necrosis, cells were incubated with 1 μg/ml propidium iodide/PBS for 5 min at room temperature and then monitored by flow cytometry as described (Yin et al., 2007).

MUC1-C [2] = molecular target: T1, MUC1-C; experiment: Immunoblot of nuclear MUC1-C levels in MCF-7 cells (peptide); type: cell-based; design: Human ZR-75-1 and MCF-7 breast cancer cells overexpress endogenous MUC1; endogenous in cells; host or cells: ZR-75-1; MCF-7; conditions: MCF-7, 5 μM peptide, 3 d
Protocol: FIGS. 2A-C. MUC1/CQC peptide blocks nuclear localization of MUC1-C. (FIG. 2A) ZR-75-1 cells were incubated with 5 μM FITC-labeled MUC1/CQC peptide for the indicated times and then analyzed by flow cytometry. The mean fluorescence index (MFI) is included in each of the panels. (FIGS. 2B-C) ZR-75-1 (FIG. 2B) and MCF-7 (FIG. 2C) cells were incubated in the presence of 5 μM MUC1/CQC or MUC1/AQA peptide for 3 d. Whole cell lysates (WCL) (left panels) and nuclear lysates (right panels) were immunoblotted with the indicated antibodies.
Whole cell and nuclear lysates were prepared as described (Leng et al., 2007). Soluble proteins were subjected to immunoprecipitation with anti-Flag (Sigma, St. Louis, Mo.). Immunoprecipitates and soluble proteins were analyzed by immunoblotting with anti-His (Cell Signaling Technology, Danvers, Mass.), anti-GFP (Millipore, Danvers, Mass.), anti-Flag, anti-MUC1-C (Ab1; NeoMarkers, Fremont, Calif.), anti-lamin B (EMD, La Jolla, Calif.) or anti-β-actin (Sigma). Reactivity was detected with horseradish peroxidase-conjugated second antibodies and chemiluminescence.

MUC1-C expression (MUC1-C [1]) | nuclear MUC1-C levels (MUC1-C [2]) | SMILES | cell cycle distribution (MCF-7 cells) | necrosis (propidium iodide) (MCF-7 cells)
downregulation of MUC1-C expression |  | O=c1cc(-c2ccc(O)cc2)oc2cc(O)cc(O)c12 [Apigenin, 4′,5,7-trihydroxyflavone] |  | 
 | down-regulation of nuclear MUC1-C levels | CC[C@H](C)[C@H](NC(=O)[C@H](CC(=O)O)NC(=O)[C@H](CC(C)C)NC(=O)[C@H](CCC(N)=O)NC(=O)CNC(=O)[C@H](Cc1ccc(O)cc1)NC(=O)[C@H](CC(N)=O)NC(=O)[C@H](CCCCN)NC(=O)[C@H](CCCNC(=N)N)NC(=O)[C@H](CCCNC(=N)N)NC(=O)[C@H](CS)NC(=O)[C@H](CCC(N)=O)NC(=O)[C@H](CS)NC(=O)[C@@H](CCCNC(=N)N)NC(=O)[C@@H](CCCNC(=N)N)NC(=O)[C@@H](CCCNC(=N)N)NC(=O)[C@@H](CCCNC(=N)N)NC(=O)[C@@H](CCCNC(=N)N)NC(=O)[C@@H](CCCNC(=N)N)NC(=O)[C@@H](CCCNC(=N)N)NC(=O)[C@@H](CCCNC(=N)N)NC(=O)[C@H](N)CCCNC(=N)N)C(=O)N[C@@H](Cc1ccccc1)C(=O)N1CCC[C@H]1C(=O)O [MUC1/CQC] | arrest of growth in S phase | induction of necrosis
